Reference: patent US20260262643A1, “HERBICIDAL BENZOXAZINES” (FMC CORPORATION, priority 2022, published 2026)

Tests used:
[1] = test system: barnyardgrass; assay: Test C preemergence; type: in vivo, Echinochloa crusgalli; settings: for Plant response rating, Barnyardgrass: Preemergence; for Barnyardgrass plant response rating: preemergence
Outline: (§1)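 Visual injury ratings on a 0–100 scale (100 = complete control) were made against untreated controls 10 days after treatment in the greenhouse. Compounds, formulated with surfactant in non-phytotoxic solvent, were sprayed on soil preemergence or onto one- to two-leaf plants 2–10 cm tall postemergence.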

[2] = test system: blackgrass; assay: Test C preemergence; type: in vivo, Alopecurus myosuroides; settings: for Plant response rating, Blackgrass: Preemergence; for Blackgrass plant response rating: preemergence
Outline: as §1

[3] = test system: corn; assay: Test C preemergence; type: in vivo, Zea mays; settings: for Plant response rating, Corn: Preemergence; for Corn plant response rating: preemergence
Outline: as §1

[4] = test system: green foxtail; assay: Test C preemergence; type: in vivo, Setaria viridis; settings: for Plant response rating, Foxtail, Green: Preemergence; for Foxtail, Green plant response rating: preemergence
Outline: as §1

[5] = test system: kochia; assay: Test C preemergence; type: in vivo, Bassia scoparia; settings: for Plant response rating, Kochia: Preemergence; for Kochia plant response rating: preemergence
Outline: as §1

[6] = test system: oat, wild; assay: Test C preemergence; type: in vivo, Avena fatua; settings: for Plant response rating, Oat, Wild: Preemergence; for Oat, Wild plant response rating: preemergence
Outline: as §1

[7] = test system: pigweed, palmer; assay: Test C preemergence; type: in vivo, Amaranthus palmeri; settings: for Plant response rating, Pigweed, Palmer: Preemergence; for Pigweed, Palmer plant response rating: preemergence
Outline: as §1

[8] = test system: ragweed; assay: Test C preemergence; type: in vivo, Ambrosia artemisiifolia; settings: for Plant response rating, Ragweed: Preemergence; for Ragweed plant response rating: preemergence
Outline: as §1

[9] = test system: ryegrass, Italian; assay: Test C preemergence; type: in vivo, Lolium multiflorum; settings: for Plant response rating, Ryegrass, Italian: Preemergence; for Ryegrass, Italian plant response rating: preemergence
Outline: as §1

[10] = test system: soybean; assay: Test C preemergence; type: in vivo, Glycine max; settings: for Plant response rating, Soybean: Preemergence; for Soybean plant response rating: preemergence
Outline: as §1

[11] = test system: wheat; assay: Test C preemergence; type: in vivo, Triticum aestivum; settings: for Plant response rating, Wheat: Preemergence; for Wheat plant response rating: preemergence
Outline: as §1

[12] = test system: barnyardgrass; assay: Test C postemergence; type: in vivo, Echinochloa crusgalli; settings: 10 days
Outline: as §1

[13] = test system: blackgrass; assay: Test C postemergence; type: in vivo, Alopecurus myosuroides; settings: 10 days
Outline: as §1

[14] = test system: corn; assay: Test C postemergence; type: in vivo, Zea mays; settings: 10 days
Outline: as §1

[15] = test system: green foxtail; assay: Test C postemergence; type: in vivo, Setaria viridis; settings: 10 days
Outline: as §1

[16] = test system: kochia; assay: Test C postemergence; type: in vivo, Bassia scoparia; settings: 10 days
Outline: as §1

[17] = test system: oat, wild; assay: Test C postemergence; type: in vivo, Avena fatua; settings: 10 days
Outline: as §1

[18] = test system: pigweed, palmer; assay: Test C postemergence; type: in vivo, Amaranthus palmeri; settings: 10 days
Outline: as §1

[19] = test system: ragweed; assay: Test C postemergence; type: in vivo, Ambrosia artemisiifolia; settings: 10 days
Outline: as §1

[20] = test system: ryegrass, Italian; assay: Test C postemergence; type: in vivo, Lolium multiflorum; settings: 10 days
Outline: as §1

[21] = test system: soybean; assay: Test C postemergence; type: in vivo, Glycine max; settings: 10 days
Outline: as §1

[22] = test system: wheat; assay: Test C postemergence; type: in vivo, Triticum aestivum; settings: 10 days
Outline: as §1

[23] = test system: horseweed; assay: Test C postemergence; type: in vivo, Erigeron canadensis; settings: 10 days
Outline: as §1

[24] = test system: barnyardgrass; assay: Test D flooded paddy test; type: in vivo, Echinochloa crus-galli; settings: 250 g ai/ha, applied to paddy water, visual rating after 13 to 14 days, scale 0 to 100 (0 no effect, 100 complete control)
Outline: (§2)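 Rating scale 0–100 (0 no effect, 100 complete control), visual, versus controls. Readout at 13–14 days after in-water application to 2-leaf plants in pots flooded 3 cm deep.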

[25] = test system: ducksalad; assay: Test D flooded paddy test; type: in vivo, Heteranthera limosa; settings: 250 g ai/ha, applied to paddy water, visual rating after 13 to 14 days, scale 0 to 100 (0 no effect, 100 complete control)
Outline: as §2

[26] = test system: rice; assay: Test D flooded paddy test; type: in vivo, Oryza sativa; settings: 250 g ai/ha, applied to paddy water, visual rating after 13 to 14 days, scale 0 to 100 (0 no effect, 100 complete control)
Outline: as §2

[27] = test system: sedge, umbrella; assay: Test D flooded paddy test; type: in vivo, Cyperus difformis; settings: 250 g ai/ha, applied to paddy water, visual rating after 13 to 14 days, scale 0 to 100 (0 no effect, 100 complete control)
Outline: as §2

[28] = 500 g ai/ha, visual rating after 10 days, 0 to 100 scale (0 no effect, 100 complete control)
[29] = Test C, 125 g ai/ha, 0 to 100 scale (0 no effect, 100 complete control)
[30] = 125 g ai/ha, postemergence, 0 to 100 scale, 0 no effect, 100 complete control
[31] = Postemergence, 500 g ai/ha, visual 0 to 100 scale (0 no effect, 100 complete control)
[32] = 500 g ai/ha, 0 to 100 scale (0 no effect, 100 complete control)
[33] = 125 g ai/ha, 0 to 100 scale, 0 no effect, 100 complete control
[34] = 500 g ai/ha, postemergence, 0 to 100 scale (0 no effect, 100 complete control)
[35] = Postemergence, 125 g ai/ha, 0 to 100 scale (0 no effect, 100 complete control)

COc1cc(C(=O)N2C[C@H](C)Oc3c(Cl)cccc32)cc(-n2cnc(C(C)(C)C)n2)c1 [Compound 213]
Plant response rating, Barnyardgrass [1, 28]: 100 | Barnyardgrass plant response rating [1, 29]: 60 | Plant response rating, Blackgrass [2, 28]: 80 | Blackgrass plant response rating [2, 29]: 60 | Plant response rating, Corn [3, 28]: 10 | Corn plant response rating [3, 29]: 0 | Plant response rating, Foxtail, Green [4, 28]: 100 | Foxtail, Green plant response rating [4, 29]: 100 | Plant response rating, Kochia [5, 28]: 100 | Kochia plant response rating [5, 29]: 30 | Plant response rating, Oat, Wild [6, 28]: 70 | Oat, Wild plant response rating [6, 29]: 10 | Plant response rating, Pigweed, Palmer [7, 28]: 100 | Pigweed, Palmer plant response rating [7, 29]: 100 | Plant response rating, Ragweed [8, 28]: 30 | Ragweed plant response rating [8, 29]: 0 | Plant response rating, Ryegrass, Italian [9, 28]: 90 | Ryegrass, Italian plant response rating [9, 29]: 90 | Plant response rating, Soybean [10, 28]: 100 | Soybean plant response rating [10, 29]: 50 | Plant response rating, Wheat [11, 28]: 90 | Wheat plant response rating [11, 29]: 10 | Plant response rating, Barnyardgrass [12, 30]: 20 | Plant response rating, Barnyardgrass [12, 31]: 30 | Plant response rating, Blackgrass [13, 30]: 0 | Plant response rating, Blackgrass [13, 31]: 70 | Plant response rating, Corn [14, 30]: 10 | Plant response rating, Corn [14, 31]: 20 | Plant response rating, Foxtail, Green [15, 30]: 40 | Plant response rating, Foxtail, Green [15, 31]: 70 | Plant response rating, Kochia [16, 30]: 90 | Plant response rating, Kochia [16, 31]: 90 | Plant response rating, Oat, Wild [17, 30]: 10 | Plant response rating, Oat, Wild [17, 31]: 20 | Plant response rating, Pigweed, Palmer [18, 30]: 100 | Plant response rating, Pigweed, Palmer [18, 31]: 100 | Plant response rating, Ragweed [19, 30]: 30 | Plant response rating, Ragweed [19, 31]: 80 | Plant response rating, Ryegrass, Italian [20, 30]: 30 | Plant response rating, Ryegrass, Italian [20, 31]: 60 | Plant response rating, Soybean [21, 30]: 100 | Plant response rating, Soybean [21, 31]: 100 | Plant response rating, Wheat [22, 30]: 20 | Plant response rating, Wheat [22, 31]: 20 | Plant response rating, Horseweed [23, 30]: 20 | Plant response rating, Horseweed [23, 31]: 30 | Plant response rating, Barnyardgrass (Flood) [24]: 20 | Plant response rating, Ducksalad (Flood) [25]: 90 | Plant response rating, Rice (Flood) [26]: 0 | Plant response rating, Sedge, Umbrella (Flood) [27]: 100

Cc1ccc(-n2cnc(C3(C#N)CC3)n2)cc1C(=O)N1C[C@H](C)Oc2c(Cl)cccc21 [Compound 398]
Barnyardgrass plant response rating [1, 32]: 90 | Plant response rating, Barnyardgrass [1, 33]: 60 | Blackgrass plant response rating [2, 32]: 40 | Plant response rating, Blackgrass [2, 33]: 30 | Corn plant response rating [3, 32]: 0 | Plant response rating, Corn [3, 33]: 0 | Foxtail, Green plant response rating [4, 32]: 100 | Plant response rating, Foxtail, Green [4, 33]: 100 | Kochia plant response rating [5, 32]: 100 | Plant response rating, Kochia [5, 33]: 90 | Oat, Wild plant response rating [6, 32]: 40 | Plant response rating, Oat, Wild [6, 33]: 0 | Pigweed, Palmer plant response rating [7, 32]: 100 | Plant response rating, Pigweed, Palmer [7, 33]: 100 | Ragweed plant response rating [8, 32]: 30 | Plant response rating, Ragweed [8, 33]: 0 | Ryegrass, Italian plant response rating [9, 32]: 80 | Plant response rating, Ryegrass, Italian [9, 33]: 40 | Soybean plant response rating [10, 32]: 60 | Plant response rating, Soybean [10, 33]: 40 | Wheat plant response rating [11, 32]: 20 | Plant response rating, Wheat [11, 33]: 0 | Plant response rating, Barnyardgrass [12, 34]: 50 | Plant response rating, Barnyardgrass [12, 35]: 20 | Plant response rating, Blackgrass [13, 34]: 90 | Plant response rating, Blackgrass [13, 35]: 70 | Plant response rating, Corn [14, 34]: 80 | Plant response rating, Corn [14, 35]: 10 | Plant response rating, Foxtail, Green [15, 34]: 90 | Plant response rating, Foxtail, Green [15, 35]: 70 | Plant response rating, Kochia [16, 34]: 90 | Plant response rating, Kochia [16, 35]: 90 | Plant response rating, Oat, Wild [17, 34]: 60 | Plant response rating, Oat, Wild [17, 35]: 0 | Plant response rating, Pigweed, Palmer [18, 34]: 100 | Plant response rating, Pigweed, Palmer [18, 35]: 90 | Plant response rating, Ragweed [19, 35]: 70 | Plant response rating, Ryegrass, Italian [20, 35]: 30 | Plant response rating, Soybean [21, 35]: 20 | Plant response rating, Wheat [22, 35]: 20 | Plant response rating, Horseweed [23, 34]: 60 | Plant response rating, Horseweed [23, 35]: 60 | Plant response rating, Barnyardgrass (Flood) [24]: 25 | Plant response rating, Ducksalad (Flood) [25]: 15 | Plant response rating, Rice (Flood) [26]: 15 | Plant response rating, Sedge, Umbrella (Flood) [27]: 45
